A short description of series [1]: Loading content by UV-Vis. Format: physicochemical. Particulars: for loading content of the drug in F127@PDA NPs: physical adsorption, conventional method. How it is done: F127@PDA NPs (5 mg) was dissolved in 10 mM Tris buffer (5 mL) and Fluorescein-TEG-NH2 (10 mg, 2 wt eq.) dissolved in 0.5 mL ethanol was added dropwise. The mixture was protected from direct sunlight and stirred over night at room temperature. Excess Fluorescein-TEG-NH2 was removed washing with Milli-Q water using Vivaspin 20 (Satorius, UK) centrifugal concentrators (10 kDa MWCO) for 15 min at 4000 rpm until the supernatant was colourless, followed by 3 days dialysis against water with 12-14 kDa MWCO dialysis bags.
To assess the loading capacity, absorption of SN38 was investigated adapting a method by Wang et al.^[90] A suspension of 10 mg F127@PDA NPs (1 mg/mL) and 2.5 mg SN38 (0.25 wt eq.) in DMSO:H2O=1:10 (10 mL) were sonicated for 30 min, followed by stirring at room temperature for 72 hours. To remove free drug, the reaction mixture was first centrifuged at 2000 rpm for 5 min. The supernatant was collected and washed with Milli-Q water using Vivaspin 20 (Satorius, UK) centrifugal concentrators (10 kDa MWCO) for 15 min at 4000 rpm. The obtained particles were diluted in Milli-Q water, frozen in liquid nitrogen and lyophilised to yield a dark brown powder. The loading content of SN38 within the NPs was determined using UV-Vis. The absorbance of SN38@F127@PDA NPs at 382 nm was deducted by the F127@PDA absorbance and the loading content was calculated according to the following equation: (3).^[98]
F127@PDA NPs (5 mg) was dissolved in 10 mM Tris buffer (5 mL) and the corresponding ligand 4-6 (10 mg, 2 wt eq.) dissolved in 0.5 mL ethanol was added dropwise. The mixture was protected from direct sunlight and stirred over night at room temperature. […]
A suspension of 10 mg F127@PDA NPs (1 mg/mL) and 2.5 mg of the corresponding drug (0.25 wt eq.) in DMSO:H2O=1:10 (10 mL) were sonicated for 30 min, followed by stirring at room temperature for 72 hours. […] The loading content of Gem and PTX within the NPs was determined using UV-Vis. The absorbance of the free drug in the supernatant was measured and the loading content was calculated according to the following equation: […]

The test system of series [2] is PANC-1. In words: MTS assay cytotoxicity of SN38 and SN38@F127@PDA. Type of series: cell-based, human. Particulars: PANC-1, MTS, 72 h treatment. How it is done: (§1) Additionally, the effect of F127@PDA NPs on the viability of AsPC-1, BxPC-3, MIA PaCa-2, PANC-1 and ARPE-19 using MTS assay (Promega, USA.) Cells were seeded into clear 96-well plates containing 2000 cells/well in 100 μL complete growth medium and cultured for 24 h at 37° C. and 5% CO2. Subsequently, cells were treated with varying concentrations of F127@PDA_40, F127@PDA_60 and F127@PDA_100 (0.01-100 μg/mL) dissolved in complete growth media containing 0.1% water. After further 72 h incubation at 37° C. and 5% CO2, 20 μL of CelTiter 96® AQueous One Solution (Promega, USA) was added into each well and incubated at 37° C., 5% CO2 for 1-4 h, according to the manufacturer's instruction. The absorbance of each well was measured at 490 nm using a Spark plate reader (TECAN, CH). Control measurements included negative control of cells with DMEM, cells with DMEM containing 0.1% water, cell-free culture media (blank) and cell-free sample dilutions in culture media to evaluate potential sample interferences with MTS reagent. All experiments were conducted in biological triplicates. The percentage cell viability was calculated according to the following:
(§2) Cells were seeded into 96-well plates at concentration of 2000 cells/well, in 100 μl of complete growth medium and incubated at 37 C, 5% CO2 for 24 h. After overnight incubation, the cells were treated with SN38 and the same concentration of SN38@F127@PDA using various concentrations (0.0001 μM-1 μM). The plates were inserted into the IncuCyte®S3 Live-Cell Analysis System (Sartorius) for real-time imaging. Treated plates were imaged every 3 h for 72 h under cell culture conditions with 10× objective using the brightfield channel. Average cell confluence was calculated as described in the previous section. In addition to live cell imaging after 72 h incubation in the IncuCyte®S3 MTS assay was performed as described in the section above.
(Tetrazolium assays rely on reduction of a dye to a coloured formazan, in cell work by metabolically active cells.)

Series [3] concerns AsPC-1. In words: MTS assay cytotoxicity of SN38 and SN38@F127@PDA. Format: cell-based, human. The settings on record: AsPC-1, MTS, 72 h treatment. How it is done: as §1, §2
Series [4] deals with BxPC-3. Put plainly: MTS assay cytotoxicity of SN38 and SN38@F127@PDA. Format: cell-based, human. Particulars: BxPc-3, MTS, 72 h treatment. How it is done: as §1, §2
Series [5] deals with MIA PaCa-2. In words: MTS assay cytotoxicity of SN38 and SN38@F127@PDA. Type of series: cell-based, human. Particulars: MIA PaCa-2, MTS, 72 h treatment. How it is done: as §1, §2
Series [6] relates to PANC-1. Put plainly: Live-cell imaging (IncuCyte) cytotoxicity of SN38 and SN38@F127@PDA. Type of series: cell-based, human. Particulars: PANC-1, live-cell imaging, 72 h treatment. How it is done:
(§3) All NPs were tested for cytotoxicity studies in AsPC-1, BxPC-3, MIA-PaCa-2, PANC-1 and ARPE-19. Cells were seeded into 96-well plates at concentration of 2000 cells/well, in 200 μl of complete growth medium and incubated at 37 C, 5% CO2 for 24 h. After overnight incubation, the cells were treated with different concentration of F127@PDA-40, F127@PDA-60 and F127@PDA-100 (0.01-100 μg/mL) dissolved in complete cell media, the same volume of water was added for the negative control. The plates were then inserted into the IncuCyte®S3 Live-Cell Analysis System (Sartorius) for real-time imaging. Treated plates were imaged every 3 h for 72 h under cell culture conditions with 10× objective using the brightfield channel. Mean cell confluence was calculated using the images taken from 3 random fields of view per well using the IncuCyte S3 v2017A software. All Incucyte experiments were performed in triplicate in three independent experiments. Relative confluence values were obtained by normalizing each value to the time zero value in each sample and normalised to the untreated control sample.
as §2

For series [7], the system named is AsPC-1. The description is as above. Particulars: AsPC-1, live-cell imaging, 72 h treatment. Type of series: cell-based, human. How it is done: as §3, §2
In series [8] the test system is BxPC-3. The series is described as above. Format: cell-based, human. Particulars: BxPc-3, live-cell imaging, 72 h treatment. How it is done:
as §3, §2

In series [9] the test system is MIA PaCa-2. The series is described as above. Format: cell-based, human. The settings on record: MIA PaCa-2, live-cell imaging, 72 h treatment. How it is done:
as §3, §2

With `Nc1ccn([C@@H]2O[C@H](CO)[C@@H](O)C2(F)F)c(=O)n1` [Gem, Gemcitabine], the “loading content of the drug in F127@PDA NPs” value in series [1] is on record as 11.5±5.7 % (w/w).
For the molecule `CC(=O)O[C@H]1C(=O)[C@@]2(C)[C@H]([C@H](OC(=O)c3ccccc3)[C@]3(O)C[C@H](OC(=O)[C@H](O)[C@@H](NC(=O)c4ccccc4)c4ccccc4)C(C)=C1C3(C)C)[C@]1(OC(C)=O)CO[C@@H]1C[C@@H]2O` [PTX, Paclitaxel], the “loading content of the drug in F127@PDA NPs” value in [1] was 14.3±4.7 % (w/w).
By IC50 is commonly meant the point on the concentration scale where inhibition reaches its midpoint. Lower therefore signals greater potency in that assay. For `CCc1c2c(nc3ccc(O)cc13)-c1cc3c(c(=O)n1C2)COC(=O)[C@]3(O)CC` [SN38], the IC50 in [2] came to 113 nM; in [3] it was 110 nM; in series [4], 56 nM; in [5], 13.1 nM; in series [6], 56.1 nM; in [7], 52.9 nM. Besides, the figures for the IC50 in series [8] and in [9] were 8.91 nM and 12.1 nM, respectively.
In the case of “TAMRA-CONH—PKKKRKVC—COOH ({TAMRA}-PKKKRKVC-OH) [TAMRA-NLS]”, in series [1] (Michael addition post-functionalization), the “loading content (w/w) of the ligand on functionalized F127@PDA NPs” value amounted to 3%.

Values taken from patent US20250221943A1, “POLYDOPAMINE CO-POLYMER NANOPARTICLES” (CAMBRIDGE ENTERPRISE LIMITED, priority 2022, published 2025).
